For this assay, the target named is T1, Protein mono-ADP-ribosyltransferase TIPARP (Homo sapiens, UniProt Q7Z3E1).
T1 sequence (Q7Z3E1 whole entry): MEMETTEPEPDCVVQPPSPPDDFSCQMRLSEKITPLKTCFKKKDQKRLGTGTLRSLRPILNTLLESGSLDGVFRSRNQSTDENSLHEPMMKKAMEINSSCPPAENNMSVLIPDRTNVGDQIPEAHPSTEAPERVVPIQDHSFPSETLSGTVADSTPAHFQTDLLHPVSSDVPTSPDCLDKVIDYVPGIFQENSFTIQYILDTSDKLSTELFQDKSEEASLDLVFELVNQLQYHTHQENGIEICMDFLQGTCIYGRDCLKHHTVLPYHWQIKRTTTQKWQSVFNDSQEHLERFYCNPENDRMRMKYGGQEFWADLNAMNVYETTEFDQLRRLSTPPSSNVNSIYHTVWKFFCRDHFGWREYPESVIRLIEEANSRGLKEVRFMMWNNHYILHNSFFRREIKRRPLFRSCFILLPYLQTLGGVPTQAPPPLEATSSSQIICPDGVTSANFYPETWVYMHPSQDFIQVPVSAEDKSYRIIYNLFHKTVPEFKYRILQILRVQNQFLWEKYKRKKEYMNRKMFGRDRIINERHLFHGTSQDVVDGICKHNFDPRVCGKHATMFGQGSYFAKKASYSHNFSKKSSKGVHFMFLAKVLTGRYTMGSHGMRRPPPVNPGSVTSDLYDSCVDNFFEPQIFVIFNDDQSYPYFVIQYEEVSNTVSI
The experiment in a line: Inhibition of PARP7 in human NCI-H1373 cells assessed as increase in STAT1 phosphorylation at Tyr701 incubated for 48 hrs by LANCE Ultra sandwich assay. It is filed as cell-based. In general terms: In TR-FRET formats the signal depends on donor and acceptor labels being close together.

On to `C[C@@H](C[C@@H](F)Cn1ccc2cc(-c3ncc(Cl)cn3)c(F)c(F)c2c1=O)Oc1cn[nH]c(=O)c1C(F)(F)F`, for which the EC50 (usually the concentration at which the effect is half-maximal) stood at 0.62 nM.
With `COc1cnc(-c2cc3ccn(C[C@H](F)C[C@H](C)Oc4cn[nH]c(=O)c4C(F)(F)F)c(=O)c3c(F)c2F)nc1`, the 50% effective concentration (EC50) worked out at 0.375 nM.
Then `C[C@@H](C[C@H](F)Cn1ccc2cc(-c3ncc(C(F)F)c(N)n3)c(F)cc2c1=O)Oc1cn[nH]c(=O)c1C(F)(F)F`, with 0.786 nM; and `C[C@@H](C[C@@H](F)Cn1ccc2cc(-c3ncc(C(F)F)cn3)c(F)c(F)c2c1=O)Oc1cn[nH]c(=O)c1C(F)(F)F`, with 0.46 nM; and `C[C@@H](C[C@H](F)Cn1cc(F)c2cc(-c3ncc(C(F)F)c(N)n3)c(F)cc2c1=O)Oc1cn[nH]c(=O)c1C(F)(F)F`, with 0.42 nM.
Then `C[C@@H](C[C@@H](F)Cn1ccc2cc(-c3ncc(C(C)(F)F)cn3)c(F)c(F)c2c1=O)Oc1cn[nH]c(=O)c1C(F)(F)F`, with 0.667 nM.

The values are drawn from ChEMBL document CHEMBL6109167, “Novel PARP7 Inhibitors for Treating Cancer” (ACS Med Chem Lett, 2025).
